Laboratory results as given in ChEMBL document CHEMBL5653615 (J Biol Chem, 2013).

What was measured:
[1] = biological target: Calcium/calmodulin-dependent protein kinase kinase 1 (Homo sapiens) (UniProt Q8N5S9); assay: Inhibition of human CAMKK1 at 1.82 nM by HotSpot assay relative to control
[2] = biological target: T1, Serine/threonine-protein kinase DCLK2 (Homo sapiens) (UniProt Q8N568); assay: Inhibition of human DCAMKL2 at 1.82 nM by HotSpot assay relative to control
T1 sequence (whole entry): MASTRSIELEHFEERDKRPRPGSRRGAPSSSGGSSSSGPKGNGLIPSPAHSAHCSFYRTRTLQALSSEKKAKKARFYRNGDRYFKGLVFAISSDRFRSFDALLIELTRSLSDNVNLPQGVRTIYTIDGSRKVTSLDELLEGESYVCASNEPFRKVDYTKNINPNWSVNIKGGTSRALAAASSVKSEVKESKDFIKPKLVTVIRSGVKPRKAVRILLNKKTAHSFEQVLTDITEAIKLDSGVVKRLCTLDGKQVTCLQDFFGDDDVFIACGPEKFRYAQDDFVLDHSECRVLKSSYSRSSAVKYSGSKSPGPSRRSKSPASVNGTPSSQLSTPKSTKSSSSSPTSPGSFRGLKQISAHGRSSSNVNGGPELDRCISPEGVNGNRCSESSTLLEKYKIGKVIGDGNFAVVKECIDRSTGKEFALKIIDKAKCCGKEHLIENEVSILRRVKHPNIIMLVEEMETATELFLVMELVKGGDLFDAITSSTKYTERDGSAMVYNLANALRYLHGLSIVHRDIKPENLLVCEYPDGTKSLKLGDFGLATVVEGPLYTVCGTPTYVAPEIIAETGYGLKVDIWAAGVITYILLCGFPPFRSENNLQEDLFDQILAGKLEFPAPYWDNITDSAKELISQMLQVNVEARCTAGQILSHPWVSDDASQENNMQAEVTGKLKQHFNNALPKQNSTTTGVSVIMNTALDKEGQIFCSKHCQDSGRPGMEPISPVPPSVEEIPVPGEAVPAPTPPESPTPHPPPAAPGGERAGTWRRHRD

[3] = biological target: Ephrin type-A receptor 4 (Homo sapiens) (UniProt P54764); assay: Inhibition of human EPHA4 at 1.82 nM by HotSpot assay relative to control
[4] = biological target: T2, cGMP-dependent protein kinase 1 (Homo sapiens) (UniProt Q13976); assay: Inhibition of human PKG1a at 1.82 nM by HotSpot assay relative to control
T2 sequence (whole entry): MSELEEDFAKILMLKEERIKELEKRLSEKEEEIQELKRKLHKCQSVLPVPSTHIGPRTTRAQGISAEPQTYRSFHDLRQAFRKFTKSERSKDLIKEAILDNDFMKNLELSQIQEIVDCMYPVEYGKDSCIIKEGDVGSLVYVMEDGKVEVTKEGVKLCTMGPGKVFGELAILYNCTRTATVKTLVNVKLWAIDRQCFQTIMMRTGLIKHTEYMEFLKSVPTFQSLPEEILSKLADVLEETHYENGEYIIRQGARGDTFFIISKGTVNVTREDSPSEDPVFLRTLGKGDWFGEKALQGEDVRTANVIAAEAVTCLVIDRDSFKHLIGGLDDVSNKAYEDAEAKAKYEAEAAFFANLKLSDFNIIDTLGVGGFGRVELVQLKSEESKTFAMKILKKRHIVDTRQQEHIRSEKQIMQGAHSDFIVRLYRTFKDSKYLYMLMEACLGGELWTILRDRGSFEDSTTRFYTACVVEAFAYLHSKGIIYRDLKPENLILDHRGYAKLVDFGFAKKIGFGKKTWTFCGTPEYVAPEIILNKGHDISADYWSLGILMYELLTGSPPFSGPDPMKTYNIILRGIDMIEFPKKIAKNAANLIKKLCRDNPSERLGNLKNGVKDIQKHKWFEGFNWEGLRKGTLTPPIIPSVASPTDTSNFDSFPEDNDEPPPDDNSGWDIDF

[5] = biological target: Serine/threonine-protein kinase 16 (Homo sapiens) (UniProt O75716); assay: Inhibition of human STK16 at 1.82 nM by HotSpot assay relative to control
[6] = biological target: Fibroblast growth factor receptor 1 (Homo sapiens) (UniProt P11362); assay: Inhibition of human FGFR1 at 18.6 nM by HotSpot assay relative to control
[7] = biological target: T3, MAP/microtubule affinity-regulating kinase 4 (Homo sapiens) (UniProt Q96L34); assay: Inhibition of human MARK4 at 18.6 nM by HotSpot assay relative to control
T3 sequence (whole entry): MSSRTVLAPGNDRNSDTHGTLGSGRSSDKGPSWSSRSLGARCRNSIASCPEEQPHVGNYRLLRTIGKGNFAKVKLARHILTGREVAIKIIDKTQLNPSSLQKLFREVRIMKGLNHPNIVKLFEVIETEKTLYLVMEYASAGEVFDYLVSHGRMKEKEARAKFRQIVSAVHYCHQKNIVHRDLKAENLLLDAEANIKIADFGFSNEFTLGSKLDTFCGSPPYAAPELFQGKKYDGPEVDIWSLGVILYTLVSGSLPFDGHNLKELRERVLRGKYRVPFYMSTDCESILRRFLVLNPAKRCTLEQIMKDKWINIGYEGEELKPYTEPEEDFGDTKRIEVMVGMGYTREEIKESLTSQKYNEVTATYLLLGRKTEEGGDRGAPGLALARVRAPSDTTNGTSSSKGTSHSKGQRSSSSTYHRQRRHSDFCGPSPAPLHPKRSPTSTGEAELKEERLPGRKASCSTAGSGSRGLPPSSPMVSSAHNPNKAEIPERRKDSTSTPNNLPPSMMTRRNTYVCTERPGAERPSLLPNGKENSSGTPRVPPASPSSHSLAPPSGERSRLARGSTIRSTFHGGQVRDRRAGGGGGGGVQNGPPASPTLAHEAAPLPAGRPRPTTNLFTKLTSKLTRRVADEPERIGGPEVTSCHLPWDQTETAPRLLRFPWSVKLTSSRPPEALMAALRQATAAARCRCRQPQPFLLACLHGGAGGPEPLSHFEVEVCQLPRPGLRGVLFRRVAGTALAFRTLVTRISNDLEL

Chain of Fibroblast growth factor receptor 1 (Homo sapiens) (P11362 22-822 limits assumed): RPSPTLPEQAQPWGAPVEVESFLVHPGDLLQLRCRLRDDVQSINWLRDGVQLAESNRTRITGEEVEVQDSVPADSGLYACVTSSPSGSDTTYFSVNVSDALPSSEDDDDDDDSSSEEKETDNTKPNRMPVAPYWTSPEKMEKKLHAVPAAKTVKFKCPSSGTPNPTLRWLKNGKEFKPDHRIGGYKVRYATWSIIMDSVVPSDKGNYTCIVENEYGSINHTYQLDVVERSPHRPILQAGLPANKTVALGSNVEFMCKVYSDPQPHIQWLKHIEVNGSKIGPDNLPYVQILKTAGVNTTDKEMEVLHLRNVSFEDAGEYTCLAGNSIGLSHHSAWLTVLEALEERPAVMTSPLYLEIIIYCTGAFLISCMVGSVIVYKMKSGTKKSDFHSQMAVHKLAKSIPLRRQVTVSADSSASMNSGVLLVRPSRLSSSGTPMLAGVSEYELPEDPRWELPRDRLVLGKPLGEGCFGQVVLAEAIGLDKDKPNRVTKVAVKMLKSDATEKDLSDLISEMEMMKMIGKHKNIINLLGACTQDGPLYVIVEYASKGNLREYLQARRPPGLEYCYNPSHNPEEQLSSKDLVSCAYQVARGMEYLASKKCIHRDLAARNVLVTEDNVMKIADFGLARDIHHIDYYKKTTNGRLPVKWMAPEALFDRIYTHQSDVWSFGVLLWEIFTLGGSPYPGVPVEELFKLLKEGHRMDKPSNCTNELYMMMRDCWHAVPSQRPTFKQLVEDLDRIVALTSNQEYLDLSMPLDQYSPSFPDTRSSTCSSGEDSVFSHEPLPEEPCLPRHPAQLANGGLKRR
Chain of Calcium/calmodulin-dependent protein kinase kinase 1 (Homo sapiens) (Q8N5S9 whole entry, looked up): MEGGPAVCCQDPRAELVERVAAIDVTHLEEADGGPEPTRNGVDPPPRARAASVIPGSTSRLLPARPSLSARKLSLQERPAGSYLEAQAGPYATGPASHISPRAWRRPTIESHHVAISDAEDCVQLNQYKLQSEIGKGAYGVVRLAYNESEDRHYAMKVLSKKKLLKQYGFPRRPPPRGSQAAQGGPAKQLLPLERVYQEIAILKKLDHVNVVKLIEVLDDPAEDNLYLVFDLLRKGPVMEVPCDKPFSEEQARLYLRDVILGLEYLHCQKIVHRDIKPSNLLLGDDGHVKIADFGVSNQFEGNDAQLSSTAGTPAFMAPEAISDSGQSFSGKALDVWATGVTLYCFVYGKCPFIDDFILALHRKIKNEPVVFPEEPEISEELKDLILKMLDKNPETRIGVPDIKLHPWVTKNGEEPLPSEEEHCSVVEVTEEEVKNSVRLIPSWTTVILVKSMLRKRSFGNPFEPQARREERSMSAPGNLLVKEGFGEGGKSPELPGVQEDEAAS
Chain of Ephrin type-A receptor 4 (Homo sapiens) (P54764 whole entry): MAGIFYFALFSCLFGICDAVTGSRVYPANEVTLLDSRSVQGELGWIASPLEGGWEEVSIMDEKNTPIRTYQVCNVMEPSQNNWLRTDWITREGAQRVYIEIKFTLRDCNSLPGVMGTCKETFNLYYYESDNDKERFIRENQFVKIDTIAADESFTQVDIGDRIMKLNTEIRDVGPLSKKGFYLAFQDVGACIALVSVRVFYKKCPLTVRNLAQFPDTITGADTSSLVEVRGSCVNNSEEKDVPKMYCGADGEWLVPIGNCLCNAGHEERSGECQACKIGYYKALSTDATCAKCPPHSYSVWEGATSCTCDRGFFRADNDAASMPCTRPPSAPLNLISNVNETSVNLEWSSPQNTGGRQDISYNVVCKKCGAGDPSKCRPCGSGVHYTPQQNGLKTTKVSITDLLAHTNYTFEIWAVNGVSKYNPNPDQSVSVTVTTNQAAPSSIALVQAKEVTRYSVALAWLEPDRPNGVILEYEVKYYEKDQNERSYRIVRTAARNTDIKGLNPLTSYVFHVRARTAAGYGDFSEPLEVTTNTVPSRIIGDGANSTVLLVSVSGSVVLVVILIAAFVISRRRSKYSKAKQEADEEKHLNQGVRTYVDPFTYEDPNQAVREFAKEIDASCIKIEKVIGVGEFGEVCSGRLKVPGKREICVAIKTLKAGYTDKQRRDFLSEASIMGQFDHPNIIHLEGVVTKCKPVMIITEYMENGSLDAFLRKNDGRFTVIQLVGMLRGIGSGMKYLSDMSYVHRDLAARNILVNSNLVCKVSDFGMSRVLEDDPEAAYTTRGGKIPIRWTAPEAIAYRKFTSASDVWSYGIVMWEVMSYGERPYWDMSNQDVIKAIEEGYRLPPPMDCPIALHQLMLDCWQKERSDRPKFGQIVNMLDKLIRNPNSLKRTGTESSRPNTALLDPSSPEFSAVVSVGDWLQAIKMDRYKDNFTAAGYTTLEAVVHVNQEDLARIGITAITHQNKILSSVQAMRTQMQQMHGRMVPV
Chain of Serine/threonine-protein kinase 16 (Homo sapiens) (O75716 whole entry): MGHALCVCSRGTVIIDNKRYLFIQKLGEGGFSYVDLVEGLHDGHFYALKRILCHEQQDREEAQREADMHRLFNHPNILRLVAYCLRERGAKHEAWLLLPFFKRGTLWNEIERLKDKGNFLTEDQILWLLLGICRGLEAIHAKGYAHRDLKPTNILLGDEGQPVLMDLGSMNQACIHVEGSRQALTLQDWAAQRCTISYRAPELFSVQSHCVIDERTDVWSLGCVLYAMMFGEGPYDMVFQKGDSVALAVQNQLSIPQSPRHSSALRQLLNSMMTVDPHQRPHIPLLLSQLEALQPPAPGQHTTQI

| SMILES | inhibition [1] [%] | inhibition [2] [%] | inhibition [3] [%] | inhibition [4] [%] | inhibition [5] [%] | inhibition [6] [%] | inhibition [7] [%] |
| --- | --- | --- | --- | --- | --- | --- | --- |
| C[C@@]1(C(=O)Nc2ccc(F)nc2)CCCN1c1nc(Nc2cc(C3CC3)n[nH]2)c2cccn2n1 | -5.91 | 3.94 | -4.4 | 5.76 | -1.36 | – | – |
| C[C@]1(O)C[C@@H](c2nc(-c3ccc4ccc(-c5ccccc5)nc4c3)c3c(N)nccn32)C1 | – | – | – | – | – | -8.13 | 7.12 |
